According to PubChem BioAssay (NCI):
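Exposure lasted 48 hours, with cells grown in 96-well plates and compounds tested at five concentrations. Here, GI50 denotes the concentration required for 50% inhibition of growth. The concentration for full growth arrest is given as TGI.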

Columns and labels:
Experiment in all cases: inhibition of tumour cell growth, NCI panel, 48 h
786-0 renal = tested on: 786-0 renal
A498 renal = tested on: A498 renal
CAKI-1 renal = tested on: CAKI-1 renal
HCT-116 colon = tested on: HCT-116 colon
LOX IMVI melanoma = tested on: LOX IMVI melanoma
OVCAR-8 ovarian = tested on: OVCAR-8 ovarian
RPMI-8226 leukemia = tested on: RPMI-8226 leukemia
SNB-75 CNS = tested on: SNB-75 CNS
HCT-15 colon = tested on: HCT-15 colon
SK-MEL-28 melanoma = tested on: SK-MEL-28 melanoma

C/C(=N/NC(N)=S)C(CN1CCOCC1)C(C1=C(O)c2ccccc2OC1)c1ccccc1 (stereo not given)
TGI (786-0 renal): > 100 µM | TGI (A498 renal): > 100 µM | TGI (CAKI-1 renal): > 100 µM | TGI (HCT-116 colon): > 100 µM | TGI (LOX IMVI melanoma): > 100 µM | TGI (OVCAR-8 ovarian): > 100 µM | TGI (RPMI-8226 leukemia): > 100 µM | TGI (SNB-75 CNS): > 100 µM

CC(=O)c1nc(-c2ccc(C[C@@H](CNC(=O)CN(C)C)NC(=O)c3ccc(OC(C)C)c(Cl)c3)cc2)cn1C
GI50 (786-0 renal): 0.0851 µM | TGI (786-0 renal): 17.1 µM | GI50 (A498 renal): 0.0407 µM | TGI (A498 renal): 2.04 µM | GI50 (HCT-116 colon): 0.0393 µM | TGI (HCT-116 colon): 13.1 µM | GI50 (HCT-15 colon): 0.0899 µM | TGI (HCT-15 colon): 19.3 µM | GI50 (LOX IMVI melanoma): 0.16 µM | TGI (LOX IMVI melanoma): 16.5 µM | GI50 (OVCAR-8 ovarian): 0.0617 µM | TGI (OVCAR-8 ovarian): 23.4 µM | GI50 (RPMI-8226 leukemia): 0.0413 µM | TGI (RPMI-8226 leukemia): 23.2 µM | GI50 (SK-MEL-28 melanoma): 8.01 µM | TGI (SK-MEL-28 melanoma): 22.6 µM | GI50 (SNB-75 CNS): 0.0761 µM | TGI (SNB-75 CNS): 13.9 µM

CCCCS(=O)(=O)c1cc(Nc2ccc(O)c3c2C(=O)c2ccccc2C3=O)ccc1C
GI50 (786-0 renal): > 100 µM | TGI (786-0 renal): > 100 µM | GI50 (A498 renal): > 100 µM | TGI (A498 renal): > 100 µM | GI50 (CAKI-1 renal): > 100 µM | TGI (CAKI-1 renal): > 100 µM | GI50 (HCT-116 colon): > 100 µM | TGI (HCT-116 colon): > 100 µM | GI50 (HCT-15 colon): 6.03 µM | TGI (HCT-15 colon): > 100 µM | GI50 (OVCAR-8 ovarian): > 100 µM | TGI (OVCAR-8 ovarian): > 100 µM | GI50 (RPMI-8226 leukemia): > 100 µM | TGI (RPMI-8226 leukemia): > 100 µM | GI50 (SK-MEL-28 melanoma): > 100 µM | TGI (SK-MEL-28 melanoma): > 100 µM | GI50 (SNB-75 CNS): 21.9 µM | TGI (SNB-75 CNS): > 100 µM

c1ccc(N2CCN(CCN3CCc4c([nH]c5ccccc45)C3c3cccnc3)CC2)cc1 (stereo not given)
TGI (786-0 renal): > 100 µM | TGI (A498 renal): > 100 µM | TGI (CAKI-1 renal): > 100 µM | TGI (HCT-116 colon): > 100 µM | TGI (HCT-15 colon): > 100 µM | TGI (OVCAR-8 ovarian): > 100 µM | TGI (RPMI-8226 leukemia): > 100 µM | TGI (SK-MEL-28 melanoma): > 100 µM | TGI (SNB-75 CNS): 9.7 µM

CCOC(=O)NN1C(=O)C(=P(c2ccccc2)(c2ccccc2)c2ccccc2)C(C(=O)OC)=C1C
TGI (786-0 renal): > 100 µM | TGI (A498 renal): > 100 µM | TGI (CAKI-1 renal): > 100 µM | TGI (HCT-116 colon): > 100 µM | TGI (HCT-15 colon): > 100 µM | TGI (LOX IMVI melanoma): > 100 µM | TGI (OVCAR-8 ovarian): > 100 µM | TGI (RPMI-8226 leukemia): > 100 µM | TGI (SNB-75 CNS): > 100 µM

CCCCC[C@H]1C/C=C2/C(=O)C=C[C@@H]2C/C=C\CCCC(=O)O1
GI50 (786-0 renal): 0.164 µM | TGI (786-0 renal): 0.489 µM | GI50 (A498 renal): 0.193 µM | TGI (A498 renal): 0.878 µM | GI50 (HCT-116 colon): 0.0905 µM | TGI (HCT-116 colon): 0.232 µM | GI50 (HCT-15 colon): 0.0937 µM | TGI (HCT-15 colon): 0.26 µM | GI50 (LOX IMVI melanoma): 0.0899 µM | TGI (LOX IMVI melanoma): 0.18 µM | GI50 (OVCAR-8 ovarian): 0.149 µM | TGI (OVCAR-8 ovarian): 5.12 µM | GI50 (RPMI-8226 leukemia): 0.117 µM | TGI (RPMI-8226 leukemia): 0.366 µM | GI50 (SK-MEL-28 melanoma): 0.155 µM | TGI (SK-MEL-28 melanoma): 0.705 µM | GI50 (SNB-75 CNS): 0.227 µM | TGI (SNB-75 CNS): 1.98 µM

CCOC(=N)CC(=O)Nc1ccccc1CC
TGI (786-0 renal): > 100 µM | TGI (A498 renal): > 100 µM | TGI (CAKI-1 renal): > 100 µM | TGI (HCT-116 colon): > 100 µM | TGI (HCT-15 colon): > 100 µM | TGI (LOX IMVI melanoma): > 100 µM | TGI (OVCAR-8 ovarian): > 100 µM | TGI (SK-MEL-28 melanoma): > 100 µM | TGI (SNB-75 CNS): > 100 µM

Cc1nc(Nc2ccc(Cl)cc2)sc1C(=O)Nc1cccc2c(=O)[nH][nH]c(=O)c12
TGI (786-0 renal): 47.9 µM | TGI (A498 renal): 59.4 µM | TGI (CAKI-1 renal): > 100 µM | TGI (HCT-116 colon): > 100 µM | TGI (HCT-15 colon): 71.3 µM | TGI (LOX IMVI melanoma): 33 µM | TGI (OVCAR-8 ovarian): > 100 µM | TGI (SK-MEL-28 melanoma): > 100 µM | TGI (SNB-75 CNS): 83.4 µM

COC(=O)CCC(NC(=S)N/N=C(\C)c1cccs1)C(=O)OC (stereo not given)
TGI (786-0 renal): > 100 µM | TGI (A498 renal): > 100 µM | TGI (HCT-116 colon): > 100 µM | TGI (HCT-15 colon): > 100 µM | TGI (LOX IMVI melanoma): > 100 µM | TGI (OVCAR-8 ovarian): > 100 µM | TGI (SK-MEL-28 melanoma): > 100 µM | TGI (SNB-75 CNS): > 100 µM

c1ccc(C2N=C(c3ccccn3)C(c3ccccn3)=NC2c2ccccc2)cc1 (stereo not given)
TGI (786-0 renal): > 100 µM | TGI (A498 renal): > 100 µM | TGI (CAKI-1 renal): > 100 µM | TGI (HCT-116 colon): > 100 µM | TGI (HCT-15 colon): > 100 µM | TGI (LOX IMVI melanoma): > 100 µM | TGI (OVCAR-8 ovarian): > 100 µM | TGI (RPMI-8226 leukemia): > 100 µM | TGI (SK-MEL-28 melanoma): > 100 µM
